Measurements published in patent US4007201A, “Novel pyrazole derivatives” (Kyorin Pharmaceutical Co. Ltd., priority 1975, dated 1977).
Read-outs that look alike come from different tables or passages of the source.

What was measured:
Type in all cases: in vivo, male Sprague Dawley rats
[1] = test system: blood glucose level in non-diabetic rats; experiment: Hypoglycemic activity in non-diabetic rats (screening test); details: Rattus norvegicus, 100 mg/kg oral, fasted, glucose s.c.
Protocol: (§1) These new compounds of the present invention are very useful as anti-diabetic agents, which is supported from the following pharmacological studies. The animals used for the pharmacological studies were male Sprague Dawley rats exept otherwise noted. 1. Hypoglycemic activity in non-diabetic rats (screening test)
(§2) The rats were fasted for 16 - 18 hours prior to the experiment and those weighing 140 - 160g were used. Glucose solution (100 mg/0.5ml/150g body weight) was subcutaneously injected on the fasted rats. Each of the present compounds was suspended in 1% carboxymethyl cellulose (CMC), and about 0.5 ml of the suspension (corresponding to 100 mg/kg of the compound per body weight) was orally administered. Blood samples were taken from the tail vein of the rats at 2 and 5 hours after the administration, and the blood glucose level in each sample (0.1 ml) was determined by the micro method of Momose as described in SOGO-RINSHO 11, 120 (1962).
3,5-Dinitrophthalic acid is reduced with glucose to stable orange-red azo-compound via red hydroxyaminophthalic acid in basic media.
To 0.5ml of water was added 0.1ml of blood and shaken to hemolyze, and to which was added 1.7ml of 0.06N barium hydroxide solution. To the resulting dark-brown solution was added 1.7ml of zinc sulfate solution (1g/dl), and which was shaken thoroughly and allowed to stand for 2-3min followed by centrifugation.
One ml of 3,5-dinitrophthalic acid solution (1.5g of monopyridinium-3,5-dinitrophthalate in 500ml of water) and 1 ml of sodium carbonatesodium hyposulfite solution (125-25g/500ml) were added to 2ml of spernatant solution. The solution was heated at 100° C for 10 min. After cooling with running water for 3 min, water was added to make 20ml.
To 2ml of water were added 3,5-dinitrophthalic acid solution and an alkaline solution, and the solution was treated as mentioned above.
As the absorbance of reference at 450nm was adjusted to 0, the absorbance of sample corresponded to blood glucose level.

[2] = test system: blood glucose level in fasted and glucose-loaded rats; experiment: Relationships between doses and reducing activity of the compound 4; details: for Blood glucose: ± SE
Protocol: (§3) The animals used for the pharmacological studies were male Sprague Dawley rats exept otherwise noted. 1. Hypoglycemic activity in non-diabetic rats (screening test)
as §2
The compound 4 and tolbutamide were orally administered to the fasted and glucose-loaded rats in various doses.

[3] = test system: blood glucose level in alloxan diabetic rats; experiment: Hypoglycemic effect in alloxan diabetic rats; details: for Hypoglycemic effect in alloxan diabetic rats (in words): oral
Protocol: as §1
(§4) Alloxan diabetic rats were obtained as follows. Namely, 2.5% fresh solution of alloxan (50mg/kg) was injected into the tail vein of male rats, and the rats were daily injected with insulin (1-4 units/day) from the 7th day after the administration of alloxan. The alloxan diabetic rats which were survived for more than 2 months with daily injection of insulin were used. The alloxan diabetic rats were fasted for 24 hours after the last treatment with insulin, and then the compound of the present invention was orally administered. The blood glucose levels were determined by the micro method of Momose before and 2, 4 and 6 hours after the administration.

[4] = test system: blood glucose level in adrenalectomized rats; experiment: Hypoglycemic effect in adrenalectomized rats; details: for Reduction % from control / Blood glucose: 2 hours; for Blood glucose: ± SE
Description: as §1
The rats were adrenalectomized (both left and right adrenal glands) and were bred for 6-7 days by using 1% saline solution as for drinking water. The adrenalectomized rats were then fasted for 16-18 hours prior to the experiment. Glucose loading (100 mg/150g body weight) was performed by a subcutaneous administration of glucose solution on the back of the rats. Immediately after the glucose loading, the compound 4 suspended in 1% CMC was orally administered. Two hours after the oral administration, blood was obtained from the vena cava candalis of the rats under anesthesia with sodium pentobarbital. Blood glucose level was determined by the method of Momose.

[5] = test system: serum FFA level in fasted rats; experiment: Time course of the serum FFA level in fasted rats (FIG. 1); details: 50 mg/kg oral; 0.5, 1, 2, 4 and 6 hours
Protocol: as §1
Further experiment was performed to clarify the effectiveness of the compound 4 on the serum FFA. Blood samples were taken at 0.5, 1, 2, 4 and 6 hours after an oral administration of 50 mg/kg to the fasted rats and the serum FFA levels were determined.

[6] = test system: blood glucose level in non-diabetic rats; experiment: Blood glucose level in non-diabetic rats, oral administration for 10 days
Protocol: as §1
The compound suspended in 1% CMC was orally administered once a day for 10 days to healthy rats weighing 140-160g. The rats were fasted for 16-18 hours prior to the last administration. Blood samples were taken at 90 minutes after the last administration, and the blood glucose and serum FFA levels were determined, respectively.

[7] = test system: serum FFA level in alloxan diabetic rats; experiment: Serum FFA level in alloxan diabetic rats, oral administration; details: compound 4 at 12.5 and 100 mg/kg, 1.5 and 5 hours
Protocol: as §1, §4
The alloxan diabetic rats which were prepared and then preserved for 6 months with insulin as described in the previous experiment were used.

[8] = test system: blood glucose level in streptozotocin-diabetic rats; experiment: Hypoglycemic effect in streptozotocin-diabetic rats; details: for Blood glucose level Before: before (baseline); for Hypoglycemic effect in streptozotocin-diabetic rats (in words): oral
Protocol: The animals used for the pharmacological studies were male Sprague Dawley rats exept otherwise noted. 1. […]
The rats were fasted for 16 hours, and then streptozotocin was intravenously injected in a dose of 65 mg/kg. Oral administration of the compound 4 was performed at 48 hours after the injection of streptozotocin. Blood samples were taken at 4 hours after the oral administration, and the blood glucose level in each sample was determined.

[9] = test system: liver glycogen level in rats loaded with glucose; experiment: Liver glycogen level in rats loaded with glucose; details: oral in 40% glucose solution; 3 hours
Protocol: as §3
The rats were fasted for 16 - 18 hours, and then the compound 4 suspended in 40% glucose solution was orally administered (5 ml/kg of the suspension per body weight). Glycogen content in the liver was determined at 3 hours after the administration.

[10] = 2 hours, read-out: Reduction % of blood glucose from control after 2 hours
[11] = 5 hours, read-out: Reduction % of blood glucose from control after 5 hours
[12] = Rattus norvegicus, 100 mg/kg oral, 4 hours

## Cc1cc(C)n(C(=O)CNS(=O)(=O)c2ccc(Cl)cc2)n1 [Example 4, 1-(N-p-chlorobenzenesulfonyl-glycyl)-3,5-dimethylpyrazole]
[1]; [10]
  inhibition in vivo at 100 mg/kg: 41.9%
[1]; [11]
  inhibition in vivo at 100 mg/kg: 25.2%
[2]; 0.56 mg/kg oral
  Reduction % from control: 14.9%
  Blood glucose: 77.5 ± 6.6 mg%
[2]; 1.14 mg/kg oral
  Reduction % from control: 19.4%
  Reduction of the blood glucose level (in words): significantly reduced the blood glucose level even at the dose of 1.14 mg/kg
  Blood glucose: 73.4 ± 6.4 mg%
[2]; 3.38 mg/kg oral
  Reduction % from control: 20.6%
  Blood glucose: 72.3 ± 4.1 mg%
[2]; 6.75 mg/kg oral
  Reduction % from control: 24.0%
  Blood glucose: 69.2 ± 7.8 mg%
[2]; 12.5 mg/kg oral
  Reduction % from control: 34.8%
  Blood glucose: 59.4 ± 4.0 mg%
[2]; 25 mg/kg oral
  Reduction % from control: 45.4%
  Blood glucose: 49.7 ± 2.8 mg%
[2]; 50 mg/kg oral
  Reduction % from control: 40.5%
  Blood glucose: 54.2 ± 2.9 mg%
[3]; 100 mg/kg oral group, before administration (baseline), ± SE
  Blood glucose before administration: 352.1 ± 31.6 mg%
[3]; 100 mg/kg oral, 2 hours, ± SE
  Blood glucose 2 hours: 267.6 ± 34.3 mg%
[3]; 100 mg/kg oral, 4 hours, ± SE
  Blood glucose 4 hours: 172.4 ± 35.1 mg%
[3]; 100 mg/kg oral, 6 hours, ± SE
  Blood glucose 6 hours: 97.8 ± 13.4 mg%
[3]
  Hypoglycemic effect in alloxan diabetic rats (in words): could be observed, and it lasted so longer than that of phenformin (phenethylbiguanide) as to be potent even at 6 hours after the administration
[4]; 0.125 mg/kg oral
  Reduction of the blood glucose level (in words): significantly reduced the blood glucose level even at low dose of 0.125 mg/kg
  Reduction % from control: 51.9%
  Blood glucose: 37.9 ± 5.5 mg %
[4]; 0.25 mg/kg oral
  Reduction % from control: 70.4%
  Blood glucose: 23.3 ± 4.0 mg %
[4]; 0.50 mg/kg oral
  Reduction % from control: 77.5%
  Blood glucose: 17.8 ± 3.6 mg %
[4]; 1.0 mg/kg oral
  Reduction % from control: 83.6%
  Blood glucose: 12.9 ± 1.4 mg %
[4]; 2.0 mg/kg oral
  Reduction % from control: 81.6%
  Blood glucose: 14.5 ± 3.2 mg %
[4]; 4.0 mg/kg oral
  Reduction % from control: 81.6%
  Blood glucose: 14.6 ± 2.9 mg %
[5]
  Effect on serum FFA level (in words, FIG. 1): markedly lowered the FFA level, and this effect could be observed at 6 hours after
[6]; 0.8 mg/kg oral once a day
  Blood glucose levels: 81.6 ± 4.8 mg/dL
[6]; 3.1 mg/kg oral once a day
  Blood glucose levels: 74.4 ± 6.6 mg/dL
[6]; 12.5 mg/kg oral once a day
  Blood glucose levels: 74.8 ± 3.9 mg/dL
[6]; 50.0 mg/kg oral once a day
  Blood glucose levels: 69.9 ± 6.7 mg/dL
[7]
  Effect on serum FFA level in alloxan diabetic rats (in words): drastically decreased within 1.5 hours, and it was still more lowered even at 5 hours later
[8]; 6.25 mg/kg oral group
  Blood glucose level Before: 425.3 ± 10.5 mg %
[8]; 6.25 mg/kg oral, 4 hours
  Blood glucose level 4 hours: 263.2 ± 26.6 mg %
[8]; 25 mg/kg oral group
  Blood glucose level Before: 415.8 ± 12.2 mg %
[8]; 25 mg/kg oral, 4 hours
  Blood glucose level 4 hours: 251.2 ± 21.8 mg %
[8]; 100 mg/kg oral group
  Blood glucose level Before: 411.5 ± 16.9 mg %
[8]; 100 mg/kg oral, 4 hours
  Blood glucose level 4 hours: 231.4 ± 33.3 mg %
[8]; Rattus norvegicus, 6.25 mg/kg oral, 4 hours
  inhibition at 6.25 mg/kg: 61.9 ± 6.2%
[8]; Rattus norvegicus, 25 mg/kg oral, 4 hours
  inhibition at 25 mg/kg: 59.8 ± 3.8%
[8]; [12]
  inhibition at 100 mg/kg: 54.3 ± 6.4%
[8]; 4 hours
  Hypoglycemic effect in streptozotocin-diabetic rats (in words): markedly reduced the blood glucose level
[9]
  Effect on the liver glycogen level: significantly reduced the liver glycogen level (p<0.001)

## CCCCNC(=O)NS(=O)(=O)c1ccc(C)cc1 [Tolbutamide, reference compound]
[1]; [10]
  inhibition in vivo at 100 mg/kg: 54.1%
[1]; [11]
  inhibition in vivo at 100 mg/kg: 52.4%
[2]; 6.75 mg/kg oral
  Reduction % from control: 3.8%
  Blood glucose: 87.6 ± 6.5 mg%
[2]; 12.5 mg/kg oral
  Reduction % from control: -1.4%
  Blood glucose: 92.4 ± 3.5 mg%
[2]; 25 mg/kg oral
  Reduction % from control: 19.3%
  Blood glucose: 73.5 ± 5.0 mg%
[2]; 50 mg/kg oral
  Reduction % from control: 48.0%
  Blood glucose: 47.4 ± 3.4 mg%
[2]; low doses, oral
  Potency at low doses (in words): not potent at low doses
[3]
  Hypoglycemic effect in alloxan diabetic rats (in words): could not exert its hypoglycemic effect in the alloxan diabetic rats
[4]; 15 mg/kg oral
  Reduction % from control: 42.0%
  Blood glucose: 45.7 ± 7.3 mg %
[4]; 30 mg/kg oral
  Reduction % from control: 79.2%
  Blood glucose: 16.4 ± 2.1 mg %
[4]; 60 mg/kg oral
  Reduction % from control: 87.9%
  Blood glucose: 9.5 ± 0.6 mg %
[5]
  Effect on serum FFA level (in words, FIG. 1): only a slight suppression
[6]; 50.0 mg/kg oral once a day
  Blood glucose levels: 33.6 ± 6.3 mg/dL
[7]
  Effect on serum FFA level in alloxan diabetic rats (in words): no suppressive effect on the serum FFA level
[8]; 100 mg/kg oral group
  Blood glucose level Before: 413.9 ± 10.2 mg %
[8]; 100 mg/kg oral, 4 hours
  Blood glucose level 4 hours: 327.8 ± 11.3 mg %
[8]; [12]
  inhibition at 100 mg/kg: 79.4 ± 2.7%
[8]; 4 hours
  Hypoglycemic effect in streptozotocin-diabetic rats (in words): did not have a potent hypoglycemic activity
[9]
  Effect on the liver glycogen level: neither tolbutamide or pnenformin exerted such effect
